Results from PubChem BioAssay (NCI).
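These data come from cells grown in 96-well plates and exposed to compound for 48 hours at five concentrations. At the GI50, growth is halved. TGI is the concentration that stops growth completely.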

Tests used:
Experiment in all cases: NCI tumour cell line growth inhibition, 48 h
[1] = system: 786-0 renal
[2] = system: A498 renal
[3] = system: A549 NSCLC
[4] = system: ACHN renal
[5] = system: BT-549 breast
[6] = system: CAKI-1 renal
[7] = system: CCRF-CEM leukemia
[8] = system: COLO 205 colon
[9] = system: DU-145 prostate
[10] = system: EKVX NSCLC
[11] = system: HCC-2998 colon
[12] = system: HCT-116 colon
[13] = system: HCT-15 colon
[14] = system: HL-60(TB) leukemia
[15] = system: HOP-62 NSCLC
[16] = system: HOP-92 NSCLC
[17] = system: HT29 colon
[18] = system: IGROV1 ovarian
[19] = system: K-562 leukemia
[20] = system: KM12 colon
[21] = system: LOX IMVI melanoma
[22] = system: M14 melanoma
[23] = system: MALME-3M melanoma
[24] = system: MCF7 breast
[25] = system: MDA-MB-231 breast
[26] = system: MDA-MB-435
[27] = system: MOLT-4 leukemia
[28] = system: NCI-H226 lung
[29] = system: NCI-H23 lung
[30] = system: NCI-H460 lung
[31] = system: NCI-H522 lung
[32] = system: NCI/ADR-RES ovarian
[33] = system: OVCAR-3 ovarian
[34] = system: OVCAR-4 ovarian
[35] = system: OVCAR-5 ovarian
[36] = system: OVCAR-8 ovarian
[37] = system: PC-3 prostate
[38] = system: RPMI-8226 leukemia
[39] = system: RXF 393 renal
[40] = system: SF-268 CNS
[41] = system: SF-295 CNS
[42] = system: SF-539 CNS
[43] = system: SK-MEL-2 melanoma
[44] = system: SK-MEL-28 melanoma
[45] = system: SK-MEL-5 melanoma
[46] = system: SK-OV-3 ovarian
[47] = system: SN12C renal
[48] = system: SNB-19 CNS
[49] = system: SNB-75 CNS
[50] = system: SR leukemia
[51] = system: SW-620 colon
[52] = system: T-47D breast
[53] = system: TK-10 renal
[54] = system: U251 CNS
[55] = system: UACC-257 melanoma
[56] = system: UACC-62 melanoma
[57] = system: UO-31 renal

COc1ccc([C@@H]2C(=O)N(c3cc(OC)c(OC)c(OC)c3)[C@H]2c2ccc(OC)c(O)c2)cc1
GI50 [1]: 0.0762 µM | TGI [1]: > 100 µM | GI50 [2]: 8.56 µM | TGI [2]: > 100 µM | GI50 [3]: 0.0438 µM | TGI [3]: > 100 µM | GI50 [4]: 0.0847 µM | TGI [4]: 32.4 µM | GI50 [5]: 0.0555 µM | TGI [5]: 3.2 µM | GI50 [6]: 0.0681 µM | TGI [6]: > 100 µM | GI50 [7]: 0.0356 µM | TGI [7]: > 100 µM | GI50 [8]: 0.0546 µM | TGI [8]: 0.205 µM | GI50 [9]: 0.0596 µM | TGI [9]: > 100 µM | GI50 [10]: 0.0498 µM | TGI [10]: > 100 µM | GI50 [11]: 0.259 µM | TGI [11]: 18.5 µM | GI50 [12]: 0.0353 µM | TGI [12]: > 100 µM | GI50 [13]: 0.0348 µM | TGI [13]: > 100 µM | GI50 [14]: 0.0214 µM | TGI [14]: 0.0527 µM | GI50 [15]: 0.0411 µM | TGI [15]: > 100 µM | GI50 [16]: 6.02 µM | TGI [16]: 48.8 µM | GI50 [17]: 0.0431 µM | TGI [17]: 11.5 µM | GI50 [18]: 0.063 µM | TGI [18]: > 100 µM | GI50 [19]: 0.0306 µM | TGI [19]: 30.5 µM | GI50 [20]: 0.0459 µM | TGI [20]: > 100 µM | GI50 [21]: 0.0376 µM | TGI [21]: > 100 µM | GI50 [22]: 0.0696 µM | TGI [22]: 48.1 µM | GI50 [23]: 0.061 µM | TGI [23]: 40.8 µM | GI50 [24]: 0.0381 µM | TGI [24]: > 100 µM | GI50 [25]: 0.0367 µM | TGI [25]: > 100 µM | GI50 [26]: 0.0301 µM | TGI [26]: > 100 µM | GI50 [27]: 0.0382 µM | TGI [27]: 31.6 µM | GI50 [28]: 0.0362 µM | TGI [28]: 37.2 µM | GI50 [29]: 0.047 µM | TGI [29]: 44.1 µM | GI50 [30]: 0.036 µM | TGI [30]: > 100 µM | GI50 [31]: 0.0209 µM | TGI [31]: 0.058 µM | GI50 [32]: 0.024 µM | TGI [32]: 0.0598 µM | GI50 [33]: 0.0408 µM | TGI [33]: 28.9 µM | GI50 [34]: 3.98 µM | TGI [34]: > 100 µM | GI50 [35]: 0.0498 µM | TGI [35]: > 100 µM | GI50 [36]: 0.0332 µM | TGI [36]: 27.8 µM | GI50 [37]: 0.2 µM | TGI [37]: > 100 µM | GI50 [38]: 0.0492 µM | TGI [38]: 12 µM | GI50 [39]: 0.0417 µM | TGI [39]: 51.1 µM | GI50 [40]: 0.3 µM | TGI [40]: > 100 µM | GI50 [41]: 0.0324 µM | TGI [41]: 18.9 µM | GI50 [42]: 0.0221 µM | TGI [42]: 0.0567 µM | GI50 [43]: 0.0483 µM | TGI [43]: > 100 µM | GI50 [44]: 13.4 µM | TGI [44]: > 100 µM | GI50 [45]: 0.0354 µM | TGI [45]: 0.161 µM | GI50 [46]: 0.0325 µM | TGI [46]: 65.2 µM | GI50 [47]: 0.0413 µM | TGI [47]: > 100 µM | GI50 [48]: 0.284 µM | TGI [48]: > 100 µM | GI50 [49]: 0.0444 µM | TGI [49]: 51.7 µM | GI50 [50]: 0.0316 µM | TGI [50]: 25.7 µM | GI50 [51]: 0.0428 µM | TGI [51]: > 100 µM | GI50 [52]: 24.3 µM | TGI [52]: > 100 µM | GI50 [53]: 15.1 µM | TGI [53]: > 100 µM | GI50 [54]: 0.034 µM | TGI [54]: > 100 µM | GI50 [55]: 13 µM | TGI [55]: > 100 µM | GI50 [56]: 0.0825 µM | TGI [56]: 42.3 µM | GI50 [57]: 0.134 µM | TGI [57]: 23.7 µM
